# Source: patent US7868037B2 (PTC Therapeutics, Inc., priority 2004, dated 2011)
# Where two headings read alike, the source gives them in different places.
# How the values were obtained:
# [1] = system: HCV replicon; experiment: microbe, parasite or virus in culture; type: cell-based, hepatitis C virus
# [2] = Hepatitis C virus, read-out: Replicon IC50 μM
melting point,Compound,other results
,CCn1c(-c2ccc(NC(=O)C3CC3)cc2)c(C#N)c2cc(OC)ccc21 [Compound 244],IC50 ([1]; read-out: Replicon IC50): 0.5 to 2 µM
204 to 205 °C,"COc1ccc2c(C#N)c(-c3ccc(NC(=O)OC(C)C)cc3)n(C3CC3)c2c1 [Compound 1234, [4-(3-cyano-1-cyclopropyl-6-methoxyindol-2-yl)phenyl]carbamic acid isopropyl ester]",
,"CCn1cc(-c2ccon2)c2ccc(OC)cc21 [Compound 57, 1-ethyl-3-isoxazol-3-yl-6-methoxy-1-H-indole]",IC50 ([1]; read-out: Replicon IC50): > 2 µM
,C=Cn1c(-c2ccc(NS(=O)(=O)CCCCl)cc2)c(C#N)c2ccc(OC)cc21 [Compound 636],IC50 ([1]; read-out: Replicon IC50): 0.5 to 2 µM
,ethanesulfonic acid [4-(3-cyano-6-difluoromethoxy-1-ethyl-1H-indol-2-yl)-phenyl]-amide [Compound 519],IC50 ([1]; read-out: Replicon IC50): < 0.5 µM
230 to 232 °C,"CCn1c(-c2ccc(N3CCCS3(=O)=O)cc2)c(C#N)c2ccc(OC(F)(F)F)cc21 [Compound 903, 2-[4-(1,1-dioxidoisothiazolidin-2-yl)phenyl]-1-ethyl-6-(trifluoromethoxy)indole-3-carbonitrile]",
,"CCn1c(C#Cc2ccc(NP(C)(C)=O)cc2)c(C#N)c2ccc(OC)cc21 [Compound 227, N-[4-(3-cyano-1-ethyl-6-methoxy-1H-indol-2-ylethynyl)-phenyl]-dimethylphosphinic amide]",IC50 ([1]; read-out: Replicon IC50): 0.5 to 2 µM
,"CCn1c(-c2ccc(N3CCNC3=O)cc2)c(C#N)c2ccc(OC)cc21 [Compound 771, 1-ethyl-6-methoxy-2-[4-(2-oxo-imidazolidin-1-yl)-phenyl]-1H-indole-3-carbonitrile]","IC50 [1, 2]: < 0.5 µM"
137 to 142 °C,"CCOc1ccc2c(C#N)c(-c3ccc(N(CC)C(=O)OC4CCCC4)cc3)n(C3CCC3)c2c1 [Compound 1251, [4-(3-cyano-1-cyclobutyl-6-ethoxy-1H-indol-2-yl)-phenyl]-ethyl-carbamic acid cyclopentyl ester]",
,"CCn1c(-c2ccc(NC(=O)NCCCl)cc2)c(C#N)c2ccc(OC)cc21 [Compound 442, 1-(2-chloroethyl)-3-[4-(3-cyano-1-ethyl-6-methoxy-1H-indol-2-yl)-phenyl]-urea]","IC50 [1, 2]: > 2 µM"
154 to 158 °C,"CCOc1ccc2c(C#N)c(-c3ccc(NC(=O)OC(C)C4CC4)cc3)n(C3CCC3)c2c1 (racemic) [Compound 1147, rac-[4-(3-cyano-1-cyclobutyl-6-ethoxy-1H-indol-2-yl)-phenyl]-carbamic acid 1-cyclopropyl-ethyl ester]",
260 to 266 °C,"CCOc1ccc2c(C#N)c(-c3ccc(NC(=O)N4CCOCC4)cc3)n(C3CCC3)c2c1 [Compound 1166, morpholine-4-carboxylic acid [4-(3-cyano-1-cyclobutyl-6-ethoxy-1H-indol-2-yl)-phenyl]-amide]",
202.3 to 205.9 °C,"CCn1c(-c2ccc(NC(=O)C3CC3)cc2)c(C#N)c2ccc(OCCn3ccnc3)cc21 [Compound 1183, cyclopropanecarboxylic acid {4-[3-cyano-1-ethyl-6-(2-imidazol-1-yl-ethoxy)-1H-indol-2-yl]-phenyl}-amide]",
232 to 234 °C,"CCn1c(-c2ccc(N3CCCS3(=O)=O)cc2)c(C#N)c2ccc(OC3CC3)cc21 [Compound 1046, 6-cyclopropoxy-2-[4-(1,1-dioxo-1λ^6-isothiazolidin-2-yl)-phenyl]-1-ethyl-1H-indole-3-carbonitrile]",
,N-(2-chloro-ethyl)-N′-[4-(3-cyano-1-ethyl-6-methoxy-1H-indol-2-yl)phenyl]sulfamide [Compound 724],IC50 ([1]; read-out: Replicon IC50): 0.5 to 2 µM
,"CCn1c(-c2ccc(N3CCOC3=O)cc2)c(C#N)c2ccc(OC(C)C)cc21 [Compound 638, 1-ethyl-6-isopropoxy-2-[4-(2-oxo-oxazolidin-3-yl)-phenyl]-1H-indole-3-carbonitrile]","IC50 [1, 2]: > 2 µM"
,"COc1ccc(-n2cc(C#N)c3cc4c(cc32)OCO4)cc1 [Compound 44, 5-(4-methoxyphenyl)-5H-[1,3]dioxolo[4,5-f]indole-7-carbonitrile]","IC50 [1, 2]: > 2 µM"
214 °C,"CC(C)OC(=O)Nc1ccc(-c2c(C#N)c3ccc(OCCn4cncn4)cc3n2C2CCC2)cc1 [Compound 1276, {4-[3-cyano-1-cyclobutyl-6-(2-[1,2,4]triazol-1-yl-ethoxy)-1H-indol-2-yl]-phenyl}-carbamic acid isopropyl ester]",
,"CCn1c(-c2ccc3oc(=O)[nH]c3c2)c(C#N)c2ccc(OC)cc21 [Compound 332, 1-ethyl-6-methoxy-2-(2-oxo-2,3-dihydro-benzooxazol-5-yl)-1H-indole-3-carbonitrile]","IC50 [1, 2]: > 2 µM"
98 °C,"CC(OC(=O)Nc1ccc(-c2c(C#N)c3ccc(OCCn4cncn4)cc3n2C2CCC2)cc1)C1CC1 (centres unmarked) [Compound 1329, {4-[3-cyano-1-cyclobutyl-6-(2-[1,2,4]triazol-1-yl-ethoxy)-1H-indol-2-yl]-phenyl}-carbamic acid 1-cyclopropyl-ethyl ester]",
147 to 148 °C,"C=CCn1c(-c2ccc(N3CCCC3=O)cc2)c(C#N)c2ccc(OC)cc21 [Compound 938, 1-allyl-6-methoxy-2-[4-(2-oxopyrrolidin-1-yl)-phenyl]-1H-indole-3-carbonitrile]",
,"CCn1c(-c2ccc([N+](=O)[O-])cc2)c(C#N)c2cc(CN3CCOCC3)c(OC)cc21 [Compound 845, 1-ethyl-6-methoxy-5-morpholin-4-ylmethyl-2-(4-nitro-phenyl)-1H-indole-3-carbonitrile]","IC50 [1, 2]: > 2 µM"
187 to 193 °C,"CCNc1ccc(-c2c(C#N)c3ccc(OCC)cc3n2C2CCC2)cc1 [Compound 1239, 1-cyclobutyl-6-ethoxy-2-(4-ethylaminophenyl)-1H-indole-3-carbonitrile]",
177 to 178 °C,"CCn1c(-c2ccc(NC(=O)OC)cc2)c(C#N)c2ccc(OC(F)F)cc21 [Compound 1130, [4-(3-cyano-6-difluoromethoxy-1-ethyl-1H-indol-2-yl)-phenyl]-carbamic acid methyl ester]",
,"CCn1c(-c2ccc([N+](=O)[O-])cc2)c(C#N)c2cc(C(C)=O)c(OC)cc21 [Compound 844, 5-acetyl-1-ethyl-6-methoxy-2-(4-nitro-phenyl)-1H-indole-3-carbonitrile]","IC50 [1, 2]: > 2 µM"
208 °C,"CC(C)OC(=O)Nc1ccc(-c2c(C#N)c3ccc(OCCCn4cncn4)cc3n2C2CCC2)cc1 [Compound 1255, {4-[3-cyano-1-cyclobutyl-6-(3-[1,2,4]triazol-1-yl-propoxy)-1H-indol-2-yl]-phenyl}-carbamic acid isopropyl ester]",
88 to 90 °C,"CC(C)NC(=O)Nc1ccc(-c2c(C#N)c3ccc(OCCCn4cncn4)cc3n2C2CCC2)cc1 [Compound 1314, 1-{4-[3-cyano-1-cyclobutyl-6-(3-[1,2,4]triazol-1-yl-propoxy)-1H-indol-2-yl]-phenyl}-3-isopropyl-urea]",
135 to 141 °C,"CCOc1ccc2c(C#N)c(-c3ccc(N(CC)CC)cc3)n(C3CCC3)c2c1 [Compound 1217, 1-Cyclobutyl-2-(4-diethylamino-phenyl)-6-ethoxy-1H-indole-3-carbonitrile]",
194 to 195 °C,"CCn1c(-c2ccc(NS(=O)(=O)CC)cc2)c(C#N)c2ccc(OC(F)(F)F)cc21 [Compound 881, ethanesulfonic acid [4-(3-cyano-1-ethyl-6-trifluoromethoxyindol-2-yl)phenyl]amide]",
